Source: patent US12565494B2, “Inhibitors of human respiratory syncytial virus and metapneumovirus” (priority 2022, dated 2026)
pEC50: −log10 of the molar value. Like-named read-outs stand apart in the source and are kept apart here.

Legend:
RSV-A2-GFP virus = experiment: microbe, parasite or virus in culture; type: cell-based, Human Respiratory Syncytial Virus; conditions: Calu-1 cells, RSV-A2-GFP MOI=1.2, 96 hrs, GFP-expressing cells counted
Method in brief: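 Assay-ready frozen Calu-1 cells (20,000 cells/mL) were infected with RSV-A2-GFP at MOI 1.2 in DMEM with 2% FBS and exposed to a 10-point 3-fold compound dilution for 96 h at 37 °C. GFP-positive cells were counted by imaging, with same-well CellTiter-Glo for cytotoxicity. IC50 and CC50 came from 4-parameter logistic fits.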

hMPV-GFP virus = experiment: microbe, parasite or virus in culture; type: cell-based, Human Metapneumovirus; conditions: VERO cells, hMPV-GFP MOI=1.25, 48 hrs, GFP-expressing cells counted
Method in brief: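 VERO cells infected with GFP-expressing hMPV at MOI 1.25 and exposed to compound in 10-point 3-fold dilutions (typical final 40,300–2 nM) for 48 h at 37 °C. GFP-positive cells counted by imaging; same-well CellTiter-Glo for cytotoxicity. IC50 and CC50 from 4-parameter logistic fits.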

[1] = human respiratory syncytial virus, Calu-1, 96 h, read-out: RSV EC50, Table I Summary of Activities for RSV
[2] = Vero, 48 h, read-out: RSV EC50, Table II Summary of Activities for hMPV
[3] = read-out: RSV EC50, Table I Summary of Activities for RSV
[4] = read-out: RSV EC50, Table II Summary of Activities for hMPV
[5] = Table I Summary of Activities for RSV, read-out: RSV EC50
[6] = Table II Summary of Activities for hMPV, read-out: RSV EC50

In the case of Cn1nc(-c2cscn2)cc1C(=O)N1C[C@@H]2[C@H](C1)[C@H]2Oc1cc(C(C)(C)N)cc(C2CCC(C)(C)CC2O)n1 (single isomer, unassigned; enantiomer 1) [Example 66A], the pEC50 (RSV-A2-GFP virus; [1]) was > 8.00 and the pEC50 (hMPV-GFP virus; [2]) was < 7.00.
With Cn1nc(-c2cscn2)cc1C(=O)N1C[C@@H]2[C@H](C1)[C@H]2Oc1cc(C2(C)CCNC2=O)cc(-c2ccc(F)cc2)n1 (single isomer, unassigned; ent-3) [Example 51B] the pEC50 (RSV-A2-GFP virus; [3]) was > 8.00 and the pEC50 (hMPV-GFP virus; [4]) was < 7.00.
For Cn1nc(-c2ccon2)cc1C(=O)N1C[C@H]2[C@H](Oc3cc(C(C)(C)N)cc(-c4ccc(F)cc4)n3)[C@@]2(C)C1 (single isomer, unassigned; enantiomer 1) [Example 45A], the pEC50 (RSV-A2-GFP virus; [1]) was > 8.00 and the pEC50 (hMPV-GFP virus; [2]) was < 7.00.
In the case of Cn1nc(-c2cscn2)cc1C(=O)N1C[C@@H]2[C@H](C1)[C@H]2Oc1cc(C2(C)CCN2)cc(-c2ccc(F)cc2)n1 (single isomer, unassigned; enantiomer 2) [Example 55B], the pEC50 (RSV-A2-GFP virus; [3]) was > 8.00 and the pEC50 (hMPV-GFP virus; [4]) was < 7.00.
With CC(C)(N)c1cc(O[C@H]2[C@@H]3CN(C(=O)c4nc(-c5cscn5)ns4)C[C@@H]32)nc(-c2ccc(F)cc2)c1 [Example 27, ((1R,5S,6s)-6-((4-(2-aminopropan-2-yl)-6-(4-fluorophenyl)pyridin-2-yl)oxy)-3-azabicyclo[3.1.0]hexan-3-yl)(3-(thiazol-4-yl)-1,2,4-thiadiazol-5-yl)methanone] the pEC50 (RSV-A2-GFP virus; [5]) was 7.00 to 8.00 and the pEC50 (hMPV-GFP virus; [6]) was < 7.00.
In the case of Cn1nc(-c2cscn2)cc1C(=O)N1C[C@@H]2[C@H](C1)[C@H]2Oc1cc(C(C)(N)C(N)=O)cc(-c2ccc(F)cc2)n1 (single isomer, unassigned; ent-2) [Example 49A], the pEC50 (RSV-A2-GFP virus; [1]) was > 8.00 and the pEC50 (hMPV-GFP virus; [2]) was < 7.00.
With Cn1nc(-c2cscn2)cc1C(=O)N1C[C@@H]2[C@H](C1)[C@H]2Oc1cc(C2(N)CCC2)cc(-c2ccc(F)cc2)n1 [Example 52, ((1R,5S,6s)-6-((4-(1-aminocyclobutyl)-6-(4-fluorophenyl)pyridin-2-yl)oxy)-3-azabicyclo[3.1.0]hexan-3-yl)(1-methyl-3-(thiazol-4-yl)-1H-pyrazol-5-yl)methanone] the pEC50 (RSV-A2-GFP virus; [5]) was > 8.00 and the pEC50 (hMPV-GFP virus; [6]) was < 7.00.
For Cn1nc(-c2cscn2)cc1C(=O)N1C[C@@H]2[C@H](C1)[C@H]2Oc1cc(C(C)(C)N)cc(C2(C)CCCC2)n1 [Example 63, ((1R,5S,6s)-6-((4-(2-aminopropan-2-yl)-6-(1-methylcyclopentyl)pyridin-2-yl)oxy)-3-azabicyclo[3.1.0]hexan-3-yl)(1-methyl-3-(thiazol-4-yl)-1H-pyrazol-5-yl)methanone], the pEC50 (RSV-A2-GFP virus; [1]) was > 8.00 and the pEC50 (hMPV-GFP virus; [2]) was < 7.00.
Cn1nc(-c2cscn2)cc1C(=O)N1C[C@@H]2[C@H](C1)[C@H]2Oc1cc(C2(C)CCN2)cc(-c2ccc(F)cc2)n1 (single isomer, unassigned; enantiomer 1) [Example 55A] was tested, and the pEC50 (RSV-A2-GFP virus; [1]) was > 8.00 and the pEC50 (hMPV-GFP virus; [4]) was 7.00 to 8.00.
For CC(C)(N)c1cc(O[C@H]2[C@@H]3CN(C(=O)c4cc(-c5cscn5)ns4)C[C@@H]32)nc(-c2ccc(F)cc2)c1 [Example 29, ((1R,5S,6s)-6-((4-(2-aminopropan-2-yl)-6-(4-fluorophenyl)pyridin-2-yl)oxy)-3-azabicyclo[3.1.0]hexan-3-yl)(3-(thiazol-4-yl)isothiazol-5-yl)methanone], the pEC50 (RSV-A2-GFP virus; [5]) was > 8.00 and the pEC50 (hMPV-GFP virus; [6]) was < 7.00.
For Cn1nc(-c2nccs2)cc1C(=O)N1C[C@@H]2[C@H](C1)[C@H]2Oc1cc(C(C)(C)N)cc(-c2ccc(F)cc2)n1 [Example 23, ((1R,5S,6s)-6-((4-(2-aminopropan-2-yl)-6-(4-fluorophenyl)pyridin-2-yl)oxy)-3-azabicyclo[3.1.0]hexan-3-yl)(1-methyl-3-(thiazol-2-yl)-1H-pyrazol-5-yl)methanone], the pEC50 (RSV-A2-GFP virus; [5]) was > 8.00 and the pEC50 (hMPV-GFP virus; [6]) was < 7.00.
With Cn1nc(-c2cscn2)cc1C(=O)N1C[C@@H]2[C@H](C1)[C@H]2Oc1cc(C(C)(C)N)cc(C2CCC(C)(C)CC2O)n1 (single isomer, unassigned; enantiomer 3) [Example 66C] the pEC50 (RSV-A2-GFP virus; [3]) was 7.00 to 8.00 and the pEC50 (hMPV-GFP virus; [4]) was < 7.00.
For Cn1nc(-c2cscn2)cc1C(=O)N1C[C@@H]2[C@H]1C[C@H]2Oc1cc(C(C)(C)N)cc(-c2ccc(F)cc2)n1 (single isomer, unassigned; enantiomer 2) [Example 1], the pEC50 (RSV-A2-GFP virus; [1]) was > 8.00 and the pEC50 (hMPV-GFP virus; [2]) was < 7.00.
In the case of Cc1nc(-c2ncc[nH]2)sc1C(=O)N1C[C@@H]2[C@H](C1)[C@H]2Oc1cc(C(C)(C)N)cc(-c2ccc(F)cc2)n1 [Example 9, (2-(1H-imidazol-2-yl)-4-methylthiazol-5-yl)((1R,5S,6s)-6-((4-(2-aminopropan-2-yl)-6-(4-fluorophenyl)pyridin-2-yl)oxy)-3-azabicyclo[3.1.0]hexan-3-yl)methanone], the pEC50 (RSV-A2-GFP virus; [5]) was > 8.00 and the pEC50 (hMPV-GFP virus; [6]) was < 7.00.
In the case of Cn1nc(-c2cscn2)cc1C(=O)N1C[C@@H]2[C@H](C1)[C@H]2Oc1cc(C2(C)CNC2=O)cc(-c2ccc(F)cc2)n1 (single isomer, unassigned; ent-3) [Example 50B], the pEC50 (RSV-A2-GFP virus; [3]) was > 8.00 and the pEC50 (hMPV-GFP virus; [4]) was < 7.00.
With Cn1nc(-c2cscn2)cc1C(=O)N1C[C@@H]2[C@H](C1)[C@H]2Oc1cc(C(C)(N)C(N)=O)cc(-c2ccc(F)cc2)n1 (single isomer, unassigned; ent-2) [Example 49B] the pEC50 (RSV-A2-GFP virus; [3]) was > 8.00 and the pEC50 (hMPV-GFP virus; [4]) was < 7.00.
In the case of Cc1cnc(-c2nc(C)c(C(=O)N3C[C@@H]4[C@H](C3)[C@H]4Oc3cc(C(C)(C)N)cc(-c4ccc(F)cc4)n3)s2)o1 [Example 4, ((1R,5S,6s)-6-((4-(2-aminopropan-2-yl)-6-(4-fluorophenyl)pyridin-2-yl)oxy)-3-azabicyclo[3.1.0]hexan-3-yl)(4-methyl-2-(5-methyloxazol-2-yl)thiazol-5-yl)methanone], the pEC50 (RSV-A2-GFP virus; [5]) was > 8.00 and the pEC50 (hMPV-GFP virus; [6]) was 7.00 to 8.00.
In the case of Cn1nc(-c2cscn2)cc1C(=O)N1C[C@H]2[C@H](Oc3cc(C(C)(C)N)cc(N4CCC(C)(C)CC4)n3)[C@@]2(C)C1 (single isomer, unassigned; enantiomer 1) [Example 46A], the pEC50 (RSV-A2-GFP virus; [1]) was > 8.00 and the pEC50 (hMPV-GFP virus; [2]) was < 7.00.
For Cn1nc(-c2cscn2)cc1C(=O)N1C[C@@H]2[C@H](C1)[C@H]2Oc1cc(C(C)(C)N)cc(C2CCC(C)(C)CC2O)n1 (single isomer, unassigned; enantiomer 4) [Example 66D], the pEC50 (RSV-A2-GFP virus; [3]) was 7.00 to 8.00 and the pEC50 (hMPV-GFP virus; [4]) was < 7.00.
For Cn1nc(-c2cscn2)cc1C(=O)N1C[C@H]2[C@H](Oc3cc(C(C)(C)N)cc(N4CCC(C)(C)CC4)n3)[C@@]2(C)C1 (single isomer, unassigned; enantiomer 2) [Example 46B], the pEC50 (RSV-A2-GFP virus; [3]) was > 8.00 and the pEC50 (hMPV-GFP virus; [4]) was < 7.00.
In the case of Cn1nc(-c2cscn2)cc1C(=O)N1C[C@@H]2[C@H](C1)[C@H]2Oc1cc(C2(C)CCCN2)cc(-c2ccc(F)cc2)n1 (single isomer, unassigned; enantiomer 2) [Example 56B], the pEC50 (RSV-A2-GFP virus; [3]) was > 8.00 and the pEC50 (hMPV-GFP virus; [4]) was < 7.00.
Cc1nc(-c2ncn[nH]2)sc1C(=O)N1C[C@@H]2[C@H](C1)[C@H]2Oc1cc(C(C)(C)N)cc(-c2ccc(F)cc2)n1 [Example 10, ((1R,5S,6s)-6-((4-(2-aminopropan-2-yl)-6-(4-fluorophenyl)pyridin-2-yl)oxy)-3-azabicyclo[3.1.0]hexan-3-yl)(4-methyl-2-(1H-1,2,4-triazol-5-yl)thiazol-5-yl)methanone] was tested, and the pEC50 (RSV-A2-GFP virus; [5]) was > 8.00 and the pEC50 (hMPV-GFP virus; [6]) was < 7.00.
In the case of Cc1nc(-c2ncco2)sc1C(=O)N1C[C@@H]2[C@H](C1)[C@H]2Oc1cc(C(C)(C)N)cc(-c2ccc(F)cc2F)n1 [Example 31, ((1R,5S,6s)-6-((4-(2-aminopropan-2-yl)-6-(2,4-difluorophenyl)pyridin-2-yl)oxy)-3-azabicyclo[3.1.0]hexan-3-yl)(4-methyl-2-(oxazol-2-yl)thiazol-5-yl)], the pEC50 (RSV-A2-GFP virus; [1]) was > 8.00 and the pEC50 (hMPV-GFP virus; [2]) was 7.00 to 8.00.
For Cn1nc(-c2cscn2)cc1C(=O)N1C[C@@H]2[C@H](C1)[C@H]2Oc1cc(C(C)(C)N)cc(N2CCC(C)(C)CC2)n1 [Example 39, ((1R,5S,6s)-6-((4-(2-aminopropan-2-yl)-6-(4,4-dimethylpiperidin-1-yl)pyridin-2-yl)oxy)-3-azabicyclo[3.1.0]hexan-3-yl)(1-methyl-3-(thiazol-4-yl)-1H-pyrazol-5-yl)methanone], the pEC50 (RSV-A2-GFP virus; [5]) was > 8.00 and the pEC50 (hMPV-GFP virus; [6]) was < 7.00.
In the case of Cn1nc(-c2ncco2)cc1C(=O)N1C[C@@H]2C(Oc3cc(C(C)(N)CO)cc(-c4ccc(F)cc4)n3)[C@@H]2C1 (single isomer, unassigned; enantiomer 1) [Example 58A], the pEC50 (RSV-A2-GFP virus; [5]) was > 8.00 and the pEC50 (hMPV-GFP virus; [6]) was < 7.00.
Cn1nc(-c2ccon2)cc1C(=O)N1C[C@@H]2[C@H](C1)[C@H]2Oc1cc(C(C)(C)N)cc(N2CCC(C(F)(F)F)CC2)n1 [Example 64, ((1R,5S,6s)-6-((4-(2-aminopropan-2-yl)-6-(4-(trifluoromethyl)piperidin-1-yl)pyridin-2-yl)oxy)-3-azabicyclo[3.1.0]hexan-3-yl)(3-(isoxazol-3-yl)-1-methyl-1H-pyrazol-5-yl)methanone] was tested, and the pEC50 (RSV-A2-GFP virus; [1]) was > 8.00 and the pEC50 (hMPV-GFP virus; [2]) was < 7.00.
